Experiment: xn = mol fraction of the nth substance listed

CC(C)[C@H](N)C(=O)O + CC[n+]1ccn(C)c1.O=S(=O)([O-])O + O
viscosity [mPa·s], 100 kPa
Settings | x1 = 0.0003621, x2 = 0 | x1 = 0.0007257, x2 = 0 | x1 = 0.001091, x2 = 0 | x1 = 0.001447, x2 = 0 | x1 = 0.001793, x2 = 0 | x1 = 0.002246, x2 = 0 | x1 = 0.002701, x2 = 0
293.15 K | 1.023 | 1.043 | 1.064 | 1.084 | 1.103 | 1.128 | 1.154
298.15 K | 0.899 | 0.907 | 0.916 | 0.924 | 0.931 | 0.941 | 0.952
303.15 K | 0.805 | 0.812 | 0.82 | 0.827 | 0.835 | 0.844 | 0.854
308.15 K | 0.727 | 0.734 | 0.742 | 0.749 | 0.756 | 0.765 | 0.774
313.15 K | 0.66 | 0.666 | 0.673 | 0.679 | 0.686 | 0.694 | 0.703

O=[N+]([O-])[O-].[Li+] + CC[NH3+].O=[N+]([O-])[O-]
Settings | electrical conductivity [S/m] | viscosity [mPa·s]
223 K, 100 kPa, x1 = 0.09755 | 0.01 | –
223 K, 100 kPa, x1 = 0.1778 | 0.005 | –
233 K, 100 kPa, x1 = 0.09755 | 0.039 | –
233 K, 100 kPa, x1 = 0.1778 | 0.022 | –
243 K, 100 kPa, x1 = 0.09755 | 0.104 | –
243 K, 100 kPa, x1 = 0.1778 | 0.065 | –
253 K, 100 kPa, x1 = 0.09755 | 0.224 | –
253 K, 100 kPa, x1 = 0.1778 | 0.151 | –
263 K, 100 kPa, x1 = 0.09755 | 0.414 | –
263 K, 100 kPa, x1 = 0.1778 | 0.295 | –
273 K, 100 kPa, x1 = 0.09755 | 0.682 | –
273 K, 100 kPa, x1 = 0.1778 | 0.512 | –
283 K, 100 kPa, x1 = 0.09755 | 1.03 | –
283 K, 100 kPa, x1 = 0.1778 | 0.81 | –
288.15 K, 100 kPa, x1 = 0.09755 | – | 56.2
288.15 K, 100 kPa, x1 = 0.1778 | – | 68.6
293 K, 100 kPa, x1 = 0.09755 | 1.47 | –
293 K, 100 kPa, x1 = 0.1778 | 1.19 | –
293.15 K, 100 kPa, x1 = 0.09755 | – | 46.97
293.15 K, 100 kPa, x1 = 0.1778 | – | 56.13
298.15 K, 100 kPa, x1 = 0.09755 | – | 39.49
298.15 K, 100 kPa, x1 = 0.1778 | – | 46.25
298.15 K, 101 kPa, x2 = 0.8222 | – | 68.1
303 K, 100 kPa, x1 = 0.09755 | 1.99 | –
303 K, 100 kPa, x1 = 0.1778 | 1.67 | –
303.15 K, 100 kPa, x1 = 0.09755 | – | 33.4
303.15 K, 100 kPa, x1 = 0.1778 | – | 38.36
308.15 K, 100 kPa, x1 = 0.09755 | – | 28.4
308.15 K, 100 kPa, x1 = 0.1778 | – | 32.01
313 K, 100 kPa, x1 = 0.09755 | 2.58 | –
313 K, 100 kPa, x1 = 0.1778 | 2.22 | –
313.15 K, 100 kPa, x1 = 0.09755 | – | 24.27
313.15 K, 100 kPa, x1 = 0.1778 | – | 26.86
323 K, 100 kPa, x1 = 0.09755 | 3.23 | –
323 K, 100 kPa, x1 = 0.1778 | 2.86 | –
333 K, 100 kPa, x1 = 0.09755 | 3.95 | –
333 K, 100 kPa, x1 = 0.1778 | 3.58 | –
343 K, 100 kPa, x1 = 0.09755 | 4.73 | –
343 K, 100 kPa, x1 = 0.1778 | 4.36 | –
353 K, 100 kPa, x1 = 0.09755 | 5.54 | –
353 K, 100 kPa, x1 = 0.1778 | 5.21 | –
363 K, 100 kPa, x1 = 0.09755 | 6.4 | –
363 K, 100 kPa, x1 = 0.1778 | 6.11 | –
373 K, 100 kPa, x1 = 0.09755 | 7.29 | –
373 K, 100 kPa, x1 = 0.1778 | 7.06 | –

CCCCCC[n+]1ccn(C)c1.F[B-](F)(F)F + O
Settings | viscosity [mPa·s]
298.15 K, 100 kPa, x1 = 0.0153 | 2.79

O=S(=O)([O-])[O-].[Na+].[Na+] + CCCCCCCCCCCC[N+](C)(C)C.[Br-] + O
298.15 K, 101 kPa
Settings | electrical conductivity [S/m]
x2 = 0, x1 = 0.0001802 | 0.219
x2 = 0, x1 = 0.001799 | 1.527
x2 = 1.98e-06, x1 = 0.0001802 | 0.2192
x2 = 4.2e-06, x1 = 0.001799 | 1.523
x2 = 6.31e-06, x1 = 0.0001802 | 0.2208
x2 = 1.064e-05, x1 = 0.0001802 | 0.2225
x2 = 1.241e-05, x1 = 0.001799 | 1.523
x2 = 1.516e-05, x1 = 0.0001802 | 0.2243
x2 = 2.061e-05, x1 = 0.001799 | 1.525
x2 = 2.201e-05, x1 = 0.0001802 | 0.2272
x2 = 2.882e-05, x1 = 0.001799 | 1.526
x2 = 3.067e-05, x1 = 0.0001802 | 0.231
x2 = 3.667e-05, x1 = 0.001799 | 1.528
x2 = 3.951e-05, x1 = 0.0001802 | 0.2348
x2 = 4.451e-05, x1 = 0.001799 | 1.531
x2 = 5.088e-05, x1 = 0.0001802 | 0.2397
x2 = 5.235e-05, x1 = 0.001799 | 1.533
x2 = 6.188e-05, x1 = 0.0001802 | 0.2448
x2 = 6.221e-05, x1 = 0.001799 | 1.536
x2 = 6.932e-05, x1 = 0.001799 | 1.538
x2 = 7.271e-05, x1 = 0.0001801 | 0.2498
x2 = 7.662e-05, x1 = 0.001799 | 1.54
x2 = 8.353e-05, x1 = 0.0001801 | 0.2543
x2 = 8.391e-05, x1 = 0.001799 | 1.542
x2 = 9.048e-05, x1 = 0.001799 | 1.544
x2 = 9.435e-05, x1 = 0.0001801 | 0.2592
x2 = 9.741e-05, x1 = 0.001799 | 1.546
x2 = 0.0001038, x1 = 0.001799 | 1.548
x2 = 0.0001048, x1 = 0.0001801 | 0.2637
x2 = 0.0001104, x1 = 0.001799 | 1.55
x2 = 0.0001153, x1 = 0.0001801 | 0.2682
x2 = 0.0001173, x1 = 0.001799 | 1.553
x2 = 0.0001239, x1 = 0.001799 | 1.556
x2 = 0.0001257, x1 = 0.0001801 | 0.2729
x2 = 0.0001315, x1 = 0.001799 | 1.56
x2 = 0.0001364, x1 = 0.0001801 | 0.2774
x2 = 0.0001404, x1 = 0.001799 | 1.563
x2 = 0.0001467, x1 = 0.0001801 | 0.2821
x2 = 0.0001478, x1 = 0.001798 | 1.565
x2 = 0.0001549, x1 = 0.001798 | 1.567
x2 = 0.0001569, x1 = 0.0001801 | 0.2866
x2 = 0.0001623, x1 = 0.001798 | 1.569
x2 = 0.0001672, x1 = 0.0001801 | 0.2912
x2 = 0.0001702, x1 = 0.001798 | 1.571
x2 = 0.0001775, x1 = 0.0001801 | 0.2956
x2 = 0.0001777, x1 = 0.001798 | 1.573
x2 = 0.0001851, x1 = 0.001798 | 1.575
x2 = 0.0001876, x1 = 0.0001801 | 0.3
x2 = 0.000193, x1 = 0.001798 | 1.577
x2 = 0.0001975, x1 = 0.0001801 | 0.3042
x2 = 0.0001997, x1 = 0.001798 | 1.579
x2 = 0.0002074, x1 = 0.001798 | 1.58
x2 = 0.0002076, x1 = 0.0001801 | 0.308
x2 = 0.000215, x1 = 0.001798 | 1.582
x2 = 0.0002175, x1 = 0.0001801 | 0.311
x2 = 0.000222, x1 = 0.001798 | 1.584
x2 = 0.0002275, x1 = 0.0001801 | 0.3132
x2 = 0.0002287, x1 = 0.001798 | 1.586
x2 = 0.0002358, x1 = 0.001798 | 1.588
x2 = 0.0002368, x1 = 0.0001801 | 0.3149
x2 = 0.0002431, x1 = 0.001798 | 1.589
x2 = 0.0002466, x1 = 0.0001801 | 0.3165
x2 = 0.0002504, x1 = 0.001798 | 1.591
x2 = 0.0002565, x1 = 0.0001801 | 0.3178
x2 = 0.0002612, x1 = 0.001798 | 1.594
x2 = 0.000266, x1 = 0.0001801 | 0.3191
x2 = 0.0002739, x1 = 0.001798 | 1.597
x2 = 0.0002776, x1 = 0.0001801 | 0.3205
x2 = 0.0002909, x1 = 0.0001801 | 0.322
x2 = 0.0003061, x1 = 0.0001801 | 0.3238
x2 = 0.0003232, x1 = 0.0001801 | 0.3257
x2 = 0.0003423, x1 = 0.0001801 | 0.3278
x2 = 0.0003636, x1 = 0.0001801 | 0.3305
x2 = 0.0003892, x1 = 0.0001801 | 0.3335

C[n+]1ccn(CCC(F)(F)C(F)(F)F)c1.F[P-](F)(F)(F)(F)F + CCCC[n+]1ccn(C)c1.F[P-](F)(F)(F)(F)F
Settings | viscosity [mPa·s]
338.16 K, 100 kPa, x2 = 0.972 | 40.9
